Measured values from patent US9399028B2, “Treatment of drug resistant cancer” (ROCKEFELLER UNIVERSITY (THE), priority 2012, dated 2016).
Structures can show the parent of a compound that is named as a salt.

Tested on: B-RafV600E/+; Pten-/-; CDKN2A-/- primary mouse melanoma cells
Test: B-RafV600E/+; Pten-/-; CDKN2A-/- melanoma cells in syngeneic C57BL/6 mice
Assay type: in vivo
Description: FIG. 24A-F. Suppression of Genetically-Driven Melanoma Progression by LXR Activation Therapy. (FIG. 24A) Overall survival of Tyr::CreER; BrafV600E/+; Ptenlox/+C57BL/6 mice following general melanoma induction by intraperitoneal administration of 4-HT (25 mg/kg) on three consecutive days. After the first 4-HT injection, mice were randomly assigned to a control diet or a diet supplemented with GW3965 (100 mg/kg). n=10-11. (FIG. 24B) Melanoma tumor burden, expressed as the percentage of dorsal skin area, measured on day 35 in Tyr::CreER; BrafV600E/+; Ptenlox/lox mice administered a control chow or a chow supplemented with GW3965 (100 mg/kg) upon melanoma induction as described in (FIG. 24A). n=4-5. (FIG. 24C) Number of macroscopic metastatic nodules to the salivary gland lymph nodes detected post-mortem in Tyr::CreER; BrafV600E/+; Ptenlox/lox mice that were fed a control chow or a chow containing GW3965 (100 mg/kg) following global induction of melanoma progression as described in (FIG. 24A). n=7-8. (FIG. 24D) Tumor growth following subcutaneous injection of 1×105 BrafV600E/+; Pten−/−; CDKN2A−/− primary melanoma cells into syngeneic C57BL/6-WT mice. Upon tumor growth to 5-10 mm3 in volume, mice were fed with a control chow or a chow supplemented with GW3965 (100 mg/kg). n=16-18. […]

Structure (SMILES): O=C(O)Cc1cccc(OCCCN(Cc2cccc(C(F)(F)F)c2Cl)CC(c2ccccc2)c2ccccc2)c1 [GW3965 2, 3-[3-[N-(2-Chloro-3-trifluoromethylbenzyl)-(2,2-diphenylethyl)amino]propyloxy]phenylacetic acid hydrochloride]
- lung metastasis (intravenous, diet 100 mg/kg): robustly inhibited
- tumor growth (subcutaneous, chow 100 mg/kg): robustly inhibited
